Test results reported in patent US8399422B2, “Compositions for transfection of oligonucleotides active for gene silencing and their biological and therapeutical applications” (Polyplus-Transfection, priority 2006, dated 2013).

Key:
[1] = system: luciferase gene (pGL3) stably expressed by A549-GL3Luc cells; assay: Luciferase gene (pGL3) silencing by GL3Luc siRNA transfection of A549-GL3Luc cells; format: cell-based, human; settings: 48 h
Experimental: A549 (human lung carcinoma, ATCC No CCL-185) cells stably expressing the GL3 luciferase (Photinus pyralis luciferase under the control of SV40 elements) were obtained after stable transfection of pGL3Luc plasmid (Clontech). A549-GL3Luc cells were grown in RPMI-1640 and supplemented with 10% fetal bovine serum, 2 mM glutamax, 100 units/ml penicillin, 100 μg/ml streptomycin and 0.8 μg/ml G418 (Promega). All the cells were maintained at 37° C. in a 5% CO2 humidified atmosphere.
One day before transfection, 2.5×10^4 cells were seeded in 24-well tissue culture plate in 1 ml fresh complete medium containing 10% FBS. Before transfection, complexes of siRNA/transfection reagent were prepared. The desired amount of siRNAs was diluted in 100 μl of serum-free medium. The solution was mixed with a Vortex for 10 seconds. Then, 0.5 μl to 3 μl of amphiphilic molecules-based formulations were added to siRNA solution. The final mixture was mixed with a Vortex for 10 seconds, and left for 10 minutes at room temperature. Then, 100 μl of complexes solution were added per well and the plates were incubated at 37° C. […]
For all transfection protocols, the plates were further incubated at 37° C. for 48 h.
Luciferase gene expression was measured using a commercial kit (Promega, France). After removing the complete medium, three washings with 1 ml of PBS solution were made. Then, 100 μl of 1× lysis buffer were added per well, and the plate was incubated at room temperature for 30 minutes. The lysates were collected and centrifuged at 14,000 g for 5 minutes. The luciferase assay was assessed with 5 μl of lysate after injection of 100 μl of luciferin solution. The luminescence (RLU) was monitored with an integration over 10 seconds with a luminometer (LB960, Berthold, France). Results are expressed as light units integrated over 10 seconds (RLU), per mg of cell protein using the BCA assay (Pierce, France).
As a target model of endogenous reporter gene, A549 cells stably expressing the GL3 luciferase were used (Photinus pyralis luciferase under the control of SV40 elements). A well defined and conventional siRNA, chemically produced, and sequence-specific GL3Luc siRNA of SEQ ID No 1 and 2 composed of a short dsRNA of 19 nucleotides matching the GL3Luc mRNA and comprising 3′-overhangs of 2 deoxyribonucleotides (dT) was used for the transfection experiments. A formulation of cationic amphiphile MONI at 1 mM and combined with neutral phospholipid DOPE at 1 mM in ethanol was prepared. SiRNA diluted in serum-free medium (100 μl) was then complexed with 2 μl of the formulation of MONI/DOPE (1 mM/1 mM in ethanol). The resulting solution of transfection complexes was added on the cells growing in medium containing serum and cells were finally exposed to siRNA concentration range from 100 to 2000 pM (FIG. 1). The silencing efficiency was determined 48 h post-transfection by measuring the luciferase activity with a standard luminescence assay normalized by the protein content of cell lysates. The luciferase activity (expressed as RLU/mg of protein) was inhibited up to 90% when the transfection was performed with 2000 pM of siRNA.
Formulations composed of amphiphilic cationic molecule/DOPE (1 mM/2 mM in 10% ethanol and water) were used to complex siRNA and transfect A549-GL3Luc cells. Luciferase gene expression was measured after 48 h incubation period. Experiments were made in triplicates and the GL3 luciferase silencing efficiency was calculated from the luciferase level of transfected cells with a control GL2-Luc siRNA and normalized by the content of protein in the cell lysates.

[2] = system: luciferase gene (pGL3) stably expressed by A549-GL3Luc cells; assay: Reverse transfection in 96-well plate, luciferase silencing in A549-GL3Luc cells; format: cell-based, human; settings: transfected with liposomal MONI/DOPE (½ mM), 48 h
Experimental: GL3Luc siRNA diluted in 50 μl of serum free medium were complexed (in 96-well tissue culture plate format, n=6) for 5 minutes with 1 μl of formulation composed of MONI/DOPE in water (1 mM/2 mM). Then, 10,000 A549-GL3Luc cells, stably expressing the luciferase gene, in 125 μl of medium containing serum were added per well. Luciferase gene expression was measured after 48 h incubation period. As unspecific siRNA control, siRNA matching the GL2 luciferase sequence were transfected in the same conditions. Luciferase gene expression was measured after 48 h incubation period and the luciferase activity was expressed as Relative Light Unit (RLU) normalized by the content of protein in the cell lysates (mg of protein). GL3 luciferase silencing efficiency (FIG. 3B) was calculated from the endogenous luciferase level of untransfected A549-GL3Luc cells normalized by the content of protein in the cell lysates.
Complexes of siRNA/transfection reagent were prepared first. […]
Luciferase gene expression was measured using a commercial kit (Promega, France). […] The luciferase assay was assessed with 5 μl of lysate after injection of 100 μl of luciferin solution. The luminescence (RLU) was monitored with an integration over 10 seconds with a luminometer (LB960, Berthold, France). Results are expressed as light units integrated over 10 seconds (RLU), per mg of cell protein using the BCA assay (Pierce, France). […]

**Q.** “GL2Luc siRNA: siRNA duplex SEQ ID No 3 and 4 matching the GL2 luciferase sequence, unspecific control (chain 1 CGUACGCGGAAUACUUCGATT; chain 2 TTGCAUGCGCCUUAUGAAGCU; chemistry not fully specified; one strand is listed 3' to 5') [reference compound]” was tested. Which “luciferase level with unrelated GL2Luc siRNA” value ([1]; transfected with MONBI 1 mM/DOPE 2 mM in ethanol, same conditions) did it give?
**A.** the luciferase level was not affected

**Q.** What about the “effect of unrelated GL2Luc siRNA on luciferase activity” value ([1]; transfected with MONI/DOPE 1 mM/1 mM in ethanol, same conditions (100 to 2000 pM)) of the same substance?
**A.** absence of effect on the luciferase activity

**Q.** And the “luciferase inhibition with unrelated GL2Luc siRNA, reverse transfection” value [2]?
**A.** absence of luciferase inhibition
